In patent publication US20190110476A1, “NOVEL ISOTHIAZOLAMIDES, PROCESSES FOR THEIR PREPARATION AND THEIR USE AS FUNGICIDES” (priority 2014, published 2019):
Marks after values point to notes of the source that are not given here.

assay: Measurement of LogP values by HPLC on reversed phase columns (EEC directive 79/831 Annex V.A8); format: physicochemical; conditions: not given
Outline: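 Following EEC directive 79/831 Annex V.A8, lipophilicity was derived from retention on reversed-phase HPLC columns. Separate values are given per diastereoisomer, and UV lambda-max (200–400 nm) was read at the peak signals.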

Row | SMILES | LogP [a] | LogP | LogP [b]
1 | Cc1ccc(C(C)(C)C)c(CN(C(=O)c2snc(Cl)c2Cl)C2CC2)c1 [E-II-015] | 5.65^[a] |  | 
2 | C[C@H](NC(=O)c1snc(N=CN(C)C)c1Cl)C1CCCCC1 [II-025] | 3.13^[a] |  | 
3 | O=C(NCc1cccc(Cl)c1Cl)c1cc(N(Cc2ccccc2)Cc2ccccc2)ns1 [I-313] |  | 5.01[a] | 
4 | CN(C)C=Nc1nsc(C(=O)NC2CCCC3CCCCC32)c1Cl (stereo not drawn) [II-038] | 3.94^[a] |  | 
5 | COc1ccc(CNC(=O)c2snc(N)c2Cl)cn1 [I-114] |  | 1.23[a] | 
6 | COc1ccc(CNc2cc(C(=O)OC(C)C)sn2)cc1 [E-VII-070] | 3.63^[a] |  | 
7 | Nc1nsc(C(=O)NCc2ccc(F)c(Oc3ccccc3)c2)c1Cl [I-237] |  | 2.90[a] | 
8 | Nc1nsc(C(=O)NCC2CCC(C(F)(F)F)CC2)c1Cl (stereo not drawn) [I-141] |  | 2.71[a] | 
9 | COc1ccc(CNC(=O)c2cc(N)ns2)cc1 [I-052] |  | 1.28[a] | 
10 | Nc1nsc(C(=O)NCC2CCCO2)c1Cl (stereo not drawn) [I-013] |  | 1.02[a] | 
11 | O=C(NC1CCCC2CCCCC21)c1snc(NCc2ccccc2)c1Cl (stereo not drawn) [I-046] |  | 5.23[a] | 
12 | C[C@H](NC(=O)c1snc(N)c1C(F)F)C1CCCCC1 [I-270] |  | 2.96[a] | 
13 | C[C@H](NC(=O)c1snc(N)c1-c1ccc(F)cc1)C1CCCCC1 [I-333] |  | 3.29[a] | 
14 | Nc1cc(C(=O)NCc2ccc(Cl)cc2Cl)sn1 [I-306] |  | 2.11[a] | 
15 | O=C(NC1CCCc2ccccc21)c1snc(Cl)c1Cl (stereo not drawn) [E-II-021] | 4.07 |  | 3.98
16 | C[C@H](NC(=O)c1cc(N)ns1)C1CCCCC1 [I-006] |  | 2.09[a] | 
17 | O=C(NCc1ccccc1F)c1snc(Nc2ccccc2)c1Cl [I-067] |  | 3.63[a] | 
18 | COc1ccc(CNC(=O)c2snc(N)c2C)cn1 [I-136] |  | 0.96[a] | 
19 | Nc1cc(C(=O)NC2CCCCC2)sn1 [I-007] |  | 1.49[a] | 
20 | O=C(NCc1ccccc1Cl)c1snc(Cl)c1Cl [E-II-003] | 3.52^[a] |  | 
21 | CCOC(=O)c1snc(N(Cc2ccccc2)Cc2ccccc2)c1-c1ccc(F)cc1 [E-VII-031] | 6.11^[a] |  | 

Row | SMILES | LogP [a] | LogP | LogP [b]
22 | CC(C)(NC(=O)c1snc(NCc2ccccc2)c1Cl)C1CCCCC1 [I-048] |  | 5.35[a] | 
23 | COc1ccc(CNc2nsc(C(=O)NCC3CCCCC3(C)C)c2Cl)cc1 (stereo not drawn) [I-056] |  | 4.95[a] | 
24 | CC(C)OC(=O)c1snc(N(C(=O)OC(C)(C)C)C(=O)OC(C)(C)C)c1Cl [E-VII-011] | 5.00^[a] |  | 
25 | Nc1nsc(C(=O)NC2CCCC2c2ccccc2)c1Cl (stereo not drawn) [I-288] |  | 2.71[a] | 
26 | O=C(Nc1nsc(C(=O)O)c1Cl)c1ccc(F)cc1 [E-VIII-007] | 1.02^[a] |  | 
27 | O=C(NCc1ccccc1Cl)c1cc(N(Cc2ccccc2)Cc2ccccc2)ns1 [I-284] |  | 4.67[a] | 
28 | O=C(NCc1ccccc1F)c1snc(Cl)c1Cl [E-II-008] | 3.23^[a] |  | 
29 | O=C(NCC1CCOCC1)c1snc(Cl)c1Cl [E-II-004] | 2.05^[a] |  | 
30 | C[C@H](NC(=O)c1snc(NS(=O)(=O)c2ccccc2)c1Cl)C1CCCCC1 [II-009] | 3.75^[a] |  | 
31 | CNS(=O)(=O)Nc1nsc(C(=O)NCC2CCCCC2)c1Cl [II-051] | 2.38^[a] |  | 
32 | Nc1nsc(C(=O)NCC2CCCCC2)c1-c1ccc(F)cc1 [I-332] |  | 2.96[a] | 
33 | Cc1cc(C)c(CN(C(=O)c2snc(N)c2Cl)C2CC2)c(C)c1 [I-116] |  | 3.46[a] | 
34 | Nc1nsc(C(=O)N(Cc2ccc(F)cc2F)C2CC2)c1Cl [I-053] |  | 2.62[a] | 
35 | CC1(C)C2CCC(CNC(=O)c3snc(Cl)c3Cl)C1C2 (stereo not drawn) [E-II-023] | 5.13 |  | 5.02
36 | Nc1cc(C(=O)NCC2CCCCC2)sn1 [I-005] |  | 1.92[a] | 
37 | O=C(NCC1CCCO1)c1snc(Cl)c1Cl (stereo not drawn) [E-II-006] | 2.20^[a] |  | 
38 | Nc1nsc(C(=O)N(Cc2c(F)cccc2Cl)C2CC2)c1Cl [I-210] |  | 2.73[a] | 
39 | CCC(=O)Nc1nsc(C(=O)NCC2CCCCC2)c1Cl [I-109] |  | 2.50[a] | 
40 | O=C(NCc1ncc(C(F)(F)F)cc1Cl)c1snc(NC(=O)C2CC2)c1Cl [I-296] |  | 2.71[a] | 
41 | CC1CCCC(C)(C)C1CN(C(=O)c1snc(N)c1Cl)C1CC1 (stereo not drawn) [I-081] |  | 4.08[a] | 

Next, values leading:

Row | LogP [a] | LogP | LogP [b] | SMILES
42 |  | 4.46[a] |  | COc1ccc(CNc2nsc(C(=O)N(Cc3ccc(F)cc3F)C3CC3)c2Cl)c(OC)c1 [I-1012]
43 |  | 5.31[a] |  | COc1ccc(CNc2nsc(C(=O)N(C3CC3)C3CCCCC3(C)C)c2Cl)cc1 (stereo not drawn) [I-860]
44 |  | 2.28[a] |  | Cc1cccc(NC(=O)c2snc(N)c2Cl)c1 [I-915]
45 |  | 2.57[a] |  | Nc1nsc(C(=O)N(Cc2cc(F)ccc2F)C2CC2)c1Cl [I-362]
46 |  | 1.88[a] |  | Nc1nsc(C(=O)NCc2ccccc2F)c1C1CC1 [I-361]
47 |  | 2.02[a] |  | COc1cc(F)ccc1CNC(=O)c1snc(N)c1Cl [I-782]
48 |  | 2.43[a] |  | Nc1nsc(C(=O)NCc2ccccc2F)c1-c1ccc(F)cc1 [I-335]
49 |  | 3.61[a] |  | COc1ccc(CNc2nsc(C(=O)NCc3cscc3C)c2Cl)cc1 [I-1201]
50 |  | 5.02[a]; |  | COc1ccc(CNc2nsc(C(=O)NC3CC4CCC3(C)C4(C)C)c2Cl)cc1 (stereo not drawn) [I-572]
51 |  | 2.35[a] |  | Cc1ccc(NC(=O)c2cc(N)ns2)cc1Cl [I-920]
52 |  | 3.85[a] |  | C[C@H](NC(=S)c1snc(N)c1Cl)C1CCCCC1 [I-418]
53 |  | 2.39[a] |  | Nc1nsc(C(=O)N(c2ccc(F)cc2F)C2CC2)c1Cl [I-958]
54 |  | 1.98[a] |  | COc1c(N)nsc1C(=O)NCc1ccc(Cl)cc1 [I-737]
55 |  | 2.23[a] |  | Nc1cc(C(=O)NCCC2CCCCC2)sn1 [I-853]
56 |  | 2.50[a] |  | COc1c(N)nsc1C(=O)NCC1CCCCCC1 [I-735]
57 |  | 1.35[a] |  | COc1ccc(CNc2nsc(C(=O)NCc3cncn3C)c2Cl)cc1 [I-1213]
58 |  | 6.79[a] |  | CC1(C)CC1N(Cc1ccc(Cl)cc1Cl)C(=O)c1cc(N(Cc2ccccc2)Cc2ccccc2)ns1 (stereo not drawn) [I-942]
59 |  | 4.84[a] |  | COc1ccc(CNc2nsc(C(=O)NCC3(C)CCC(C)CC3)c2Cl)cc1 (stereo not drawn) [I-825]
60 | 1.64^[a] |  |  | O=C(NCc1ccc(F)cc1F)c1snc(N=S2CCCC2)c1Cl [II-042]
61 |  | 2.03[a] |  | Nc1nsc(C(=O)NCc2cc(F)c(F)cc2F)c1Cl [I-677]
62 |  | 5.90[a] |  | O=C(c1cc(N(Cc2ccccc2)Cc2ccccc2)ns1)N(Cc1c(Cl)cccc1Cl)C1CC1 [I-939]
63 |  | 3.74[a] |  | O=C(c1cc(NCc2ccccc2)ns1)N(Cc1cc(F)ccc1F)C1CC1 [I-998]
64 |  | 3.19[a] |  | CC(c1cc(Cl)cc(Cl)c1)N(C(=O)c1cc(N)ns1)C1CC1 (stereo not drawn) [I-979]
65 |  | 2.39[a] |  | COc1ccc(CNc2nsc(C(=O)NCc3ccn(C)n3)c2Cl)cc1 [I-1238]
66 |  | 3.33[a] |  | Nc1nsc(C(=O)NC2CCCC3CCCCC32)c1Cl (stereo not drawn) [I-808]
67 |  | 2.48[a] |  | CCn1cc(CNC(=O)c2snc(NCc3ccc(OC)cc3)c2Cl)cn1 [I-1205]
68 |  | 3.74[a] |  | COc1ccc(CNc2nsc(C(=O)NCCc3ccccc3F)c2Cl)cc1 [I-963]

Row | LogP [a] | LogP | LogP [b] | SMILES
69 |  | 4.10[a] |  | COc1ccc(CNc2nsc(C(=O)N(c3cc(F)cc(F)c3)C3CC3)c2Cl)cc1 [I-918]
70 |  | 1.68[a] |  | Cc1c(N)nsc1C(=O)NCc1ccc(F)c(F)c1F [I-597]
71 |  | 3.69[a] |  | COc1ccc(CNc2nsc(C(=O)NCc3ccc(F)c(OC)c3F)c2Cl)cc1 [I-426]
72 |  | 2.73[a] |  | CCn1cc(C(C)NC(=O)c2snc(NCc3ccc(OC)cc3)c2Cl)c(C)n1 (stereo not drawn) [I-1349]
73 | 3.22 |  | 3.16 | COc1ccc(CNc2nsc(C(=O)N3CCCCC3)c2Cl)cc1 [II-108]
74 |  | 2.58[a] |  | COc1ccc(CNc2nsc(C(=O)NCc3cnn(CC(F)F)c3)c2Cl)cc1 [I-1315]
75 |  | 0.82[a] |  | Cc1c(N)nsc1C(=O)NCC1CCCC1O (single isomer, unassigned) [I-707]
76 |  | 2.80[a] |  | COc1ccc(CNc2nsc(C(=O)NCc3nc(C)cs3)c2Cl)cc1 [I-1203]
77 |  | 3.63[a] |  | COc1ccc(CNc2nsc(C(=O)NC(C)(C)c3nc(C)cs3)c2Cl)cc1 [I-1267]
78 |  | 4.74[a] |  | COc1ccc(CNc2nsc(C(=O)NC3CC(C)(C)Cc4oc(C)cc43)c2Cl)cc1 (stereo not drawn) [I-1325]
79 |  | 4.20[a] |  | COc1ccc(CNc2nsc(C(=O)NCc3ccc(Cl)cc3C)c2Cl)cc1 [I-376]
80 |  | 4.07[a] |  | COc1ccc(CNc2nsc(C(=O)NCCc3ccccc3Cl)c2Cl)cc1 [I-877]
81 |  | 1.79[a] |  | O=CNc1cc(C(=O)NCc2ccc(F)cc2F)sn1 [I-430]
82 | 2.02 |  | 1.98 | Nc1nsc(C(=O)N2CCc3ccccc3C2)c1Cl [II-020]
83 |  | 5.22[a] |  | COc1ccc(CNc2nsc(C(=O)N(C3CC3)C(C)c3ccc(Cl)cc3Cl)c2Cl)cc1 (stereo not drawn) [I-931]
84 |  | 1.81[a] |  | Nc1nsc(C(=O)NCC2(F)CCCC2)c1Cl [I-826]
85 |  | 1.66[a] |  | CCOc1c(N)nsc1C(=O)NCC1CCCCO1 (stereo not drawn) [I-729]
86 |  | 4.17[a] |  | CCC(c1cc(Cl)cc(Cl)c1)N(C(=O)c1snc(N)c1Cl)C1CC1 (stereo not drawn) [I-955]
87 | 4.69^[a] |  |  | O=C(NCCc1ccccc1)c1snc(N=C(c2ccccc2)c2ccccc2)c1Cl [II-095]
88 |  | 4.67[a] |  | COc1ccc(CNc2nsc(C(=O)N(C3CCCCC3)C3CC3)c2Cl)cc1 [I-893]
89 |  | 4.27[a] |  | COc1ccc(CNc2nsc(C(=O)NC3CCCCCC3)c2Cl)cc1 [I-1245]
90 |  | 4.40[a] |  | COc1ccc(CNc2nsc(C(=O)NC3CCCCc4ccccc43)c2Cl)cc1 (stereo not drawn) [I-1334]
91 |  | 4.46[a] |  | COc1ccc(CNc2nsc(C(=O)NCc3cc(C(F)(F)F)cc(C(F)(F)F)c3)c2Cl)cc1 [I-1313]
92 |  | 3.75[a] |  | COc1ccc(CN(C(=O)OC(C)(C)C)c2nsc(C(=O)N(C)OC)c2Cl)cc1 [I-1286]
93 |  | 6.32[a] |  | COc1ccc(CNc2nsc(C(=O)NC3C(C(C)C)CCCC3C(C)C)c2Cl)cc1 (stereo not drawn) [I-1219]
94 |  | 0.88[a] |  | Nc1nsc(C(=O)NCC2CCCC2O)c1Cl (single isomer, unassigned) [I-773]

same assay, conditions: HPLC LC-UV, acidic range, 0.1% formic acid in water and acetonitrile as eluent

Row | SMILES | chromatographic logP
95 | O=C(O)c1snc(N(Cc2ccccc2)Cc2ccccc2)c1C(F)F [E-VIII-009, 3-(dibenzylamino)-4-(difluoromethyl)-1,2-thiazole-5-carboxylic acid] | 3.78
